This experiment deals with T1, Rv0888 (Mycobacterium tuberculosis, UniProt P9WKQ1).
T1 construct: gene spmT
T1 sequence (P9WKQ1 32-490 limits assumed): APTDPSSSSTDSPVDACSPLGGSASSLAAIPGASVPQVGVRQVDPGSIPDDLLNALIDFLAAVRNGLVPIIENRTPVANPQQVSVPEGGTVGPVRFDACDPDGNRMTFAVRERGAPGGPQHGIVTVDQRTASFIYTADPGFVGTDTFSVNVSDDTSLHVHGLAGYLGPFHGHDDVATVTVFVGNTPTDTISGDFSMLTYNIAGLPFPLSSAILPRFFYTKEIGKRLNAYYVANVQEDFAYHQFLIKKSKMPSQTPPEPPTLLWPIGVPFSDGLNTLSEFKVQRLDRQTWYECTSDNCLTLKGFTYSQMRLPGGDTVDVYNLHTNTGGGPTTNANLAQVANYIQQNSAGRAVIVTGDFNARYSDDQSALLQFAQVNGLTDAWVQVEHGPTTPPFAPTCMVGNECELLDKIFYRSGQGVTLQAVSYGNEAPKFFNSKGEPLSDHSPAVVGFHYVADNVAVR
Description: DNase inhibition, circular plasmid DNA, agarose gel and A260 spectrophotometry. The experiment is classed as biochemical. As to conditions: pH 6.5, 5 mM CaCl2, 5 mM MnCl2, 41 °C, 1 h.
On to `C/C=C1/[C@H](O[C@@H]2O[C@H](CO)[C@@H](O)[C@H](O)[C@H]2O)OC=C(C(=O)OC)[C@H]1CC(=O)OCCc1ccc(O)c(O)c1` [Oleuropein], for which the “relative DNase activity at 0.5, 1, 2 mM” value is “inhibited by four Chinese medicine monomers (Oleuropein, 6-Gingerol, Corylifolinin and Acteoside)”.

With `CCCCC[C@H](O)CC(=O)CCc1ccc(O)c(OC)c1` [6-Gingerol], the “relative DNase activity at 0.5, 1, 2 mM” value is “inhibited by four Chinese medicine monomers (Oleuropein, 6-Gingerol, Corylifolinin and Acteoside)”.

Consider `CC(C)=CCc1c(O)ccc(C(=O)/C=C/c2ccc(O)cc2)c1O` [Corylifolinin], for which the “relative DNase activity at 0.5, 1, 2 mM” value is “inhibited by four Chinese medicine monomers (Oleuropein, 6-Gingerol, Corylifolinin and Acteoside)”.

As for `C[C@@H]1O[C@@H](O[C@@H]2[C@@H](O)[C@H](OCCc3ccc(O)c(O)c3)O[C@H](CO)[C@H]2OC(=O)/C=C/c2ccc(O)c(O)c2)[C@H](O)[C@H](O)[C@H]1O` [Acteoside], the “relative DNase activity at 0.5, 1, 2 mM” value is “inhibited by four Chinese medicine monomers (Oleuropein, 6-Gingerol, Corylifolinin and Acteoside)”.

The record behind these values is PMC4733049, “Characterization of Rv0888, a Novel Extracellular Nuclease from Mycobacterium tuberculosis” (Scientific Reports, 2016).
